Assay results from ChEMBL document CHEMBL4373702, “Intracellular Trapping of the Selective Phosphoglycerate Dehydrogenase (PHGDH) Inhibitor BI-4924 Disrupts Serine Biosynthesis” (J Med Chem, 2019).

Key:
[1] = biological target: T1, D-3-phosphoglycerate dehydrogenase (Homo sapiens, UniProt O43175); test: Binding affinity to N-terminal His6-tagged human PHGDH (4 to 315 residues)by SPR assay
T1 sequence (O43175 whole entry): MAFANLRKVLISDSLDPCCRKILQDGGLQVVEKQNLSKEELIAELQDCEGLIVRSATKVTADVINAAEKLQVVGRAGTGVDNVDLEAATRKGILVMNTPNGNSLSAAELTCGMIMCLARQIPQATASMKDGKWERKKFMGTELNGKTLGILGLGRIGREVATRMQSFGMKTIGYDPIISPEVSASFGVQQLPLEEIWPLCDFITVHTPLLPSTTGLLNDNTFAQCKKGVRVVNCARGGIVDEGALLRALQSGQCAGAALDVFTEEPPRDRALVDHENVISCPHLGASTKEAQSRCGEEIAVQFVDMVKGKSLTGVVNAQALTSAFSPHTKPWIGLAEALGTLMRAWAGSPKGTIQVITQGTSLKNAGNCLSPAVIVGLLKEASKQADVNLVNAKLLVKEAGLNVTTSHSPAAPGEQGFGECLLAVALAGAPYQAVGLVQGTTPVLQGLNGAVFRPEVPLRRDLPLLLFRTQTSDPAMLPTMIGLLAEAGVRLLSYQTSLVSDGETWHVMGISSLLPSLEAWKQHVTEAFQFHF

[2] = biological target: T1, D-3-phosphoglycerate dehydrogenase; test: Inhibition of N-terminal His6-tagged human PHGDH (4 to 315 residues) assessed as effect on NADH fluorescence incubated for 2 hrs using 3-PG substrate in presence of 19 uM NAD+ and PSAT1 by diaphorase based luminescence assay
[3] = biological target: T1, D-3-phosphoglycerate dehydrogenase; test: Inhibition of N-terminal His6-tagged human PHGDH (4 to 315 residues) assessed as effect on NADH fluorescence incubated for 2 hrs using 3-PG substrate in presence of 250 uM NAD+ and PSAT1 by diaphorase based luminescence assay
[4] = Drug uptake in human MDA-MB-468 cells assessed as BI-4924 levels at 3 uM measured up to 72 hrs relative to control; format: ADME, cell-based; conditions: mda-mb-468, 72 h
[5] = Drug uptake in human MDA-MB-468 cells assessed as BI-4924 levels at 3 uM measured up to 72 hrs; format: ADME, cell-based; conditions: mda-mb-468, 72 h, TDE = time-dependent effect
[6] = Half life in 10% fetal calf serum; format: ADME, cell-free, Bos taurus; conditions: cattle
[7] = Half life in mouse serum; format: ADME, cell-free
[8] = biological target: T1, D-3-phosphoglycerate dehydrogenase; test: Inhibition of PHGDH in human MDA-MB-468 cells assessed as reduction in [13C]-serine incubated for 1 hr using [13C]glucose as substrate by LC-MS/MS analysis; format: cell-based
[9] = biological target: T1, D-3-phosphoglycerate dehydrogenase; test: Inhibition of PHGDH in human MDA-MB-468 cells assessed as reduction in [13C]-serine incubated for 72 hrs using [13C]glucose as substrate by LC-MS/MS analysis; format: cell-based
[10] = biological target: T1, D-3-phosphoglycerate dehydrogenase; test: Binding affinity to human PHGDH ( 1 to 533 residues) expressed in Escherichia coli Rosetta (DE3) by Sypro-orange dye based differential scanning fluorimetry
[11] = biological target: T1, D-3-phosphoglycerate dehydrogenase; test: Inhibition of His6-tagged PHGDH (unknown origin) expressed in Escherichia coli BL21 assessed as effect on NADH fluorescence incubated for 60 mins using 3-PG as substrate in presence of 500 uM NAD+ and PSAT1 by diaphorase and resazurin dye based fluorescence assay

SMILES	IC50 [2] [µM]	further results
Cn1c(C(=O)Nc2cccc(C(=O)O)c2)cc2ccccc21	–	Kd [1]: 144 µM
Cn1nc(-c2ccccc2)cc1C(=O)NC(C)(C)c1ccc(C(=O)O)cc1	1.3	–
C[C@@H](NC(=O)c1cc(-c2ccccc2)nn1C)c1ccc(NS(C)(=O)=O)cc1	53.8	–
C[C@@H](NC(=O)c1cc(-c2ccccc2)nn1C)c1ccc(N2C(=O)CC[C@H]2C(=O)O)cc1	0.1	–
CC(NC(=O)c1cc(-c2ccccc2)nn1C)c1ccc(CC(=O)O)cc1 (racemic)	0.8	–
C[C@@H](NC(=O)c1cc(-c2ccccc2)nn1C)c1ccc(N2CCCC2)cc1	42.1	–
COc1ccc([C@@H](C)NC(=O)c2cc(-c3ccccc3)nn2C)cc1	16.2	–
Cc1ccc([C@@H](C)NC(=O)c2cc(-c3ccccc3)nn2C)cc1	23.2	–
CC(NC(=O)c1cc(-c2ccccc2)nn1C)c1ccc(N(C)S(C)(=O)=O)cc1 (racemic)	6.7	–
Cn1nc(-c2ccccc2)cc1C(=O)NC1CC1	–	Kd [1]: 105 µM
C[C@@H](NC(=O)c1cc(-c2ccccc2)nn1C)c1ccccc1	22	–
C[C@@H](NC(=O)c1cc(-c2ccccc2)nn1C)c1ccc(N2CCCS2(=O)=O)cc1	2.5	–
C[C@@H](NC(=O)c1cc(-c2ccccc2)nn1C)c1ccc(N2CC[C@H](O)C2)cc1	12.2	–
C[C@@H](NC(=O)c1cc(-c2ccccc2)nn1C)c1ccc(N2CCCC2=O)cc1	3.3	–
Cn1nc(-c2ccccc2)cc1C(=O)NCc1ccccc1	> 100	–
C[C@H](NC(=O)c1cc(-c2ccccc2)nn1C)c1ccccc1	> 100	–
CC(=O)NS(=O)(=O)c1ccc([C@@H](C)NC(=O)c2cc(-c3ccccc3)nn2C)cc1	0.1	–
Cn1c(C(=O)N[C@@H](c2ccccc2)[C@@H](O)C(F)(F)F)cc2cc(Cl)ccc21 (relative stereo)	> 100	–
C[C@@H](NC(=O)c1cc(-c2ccccc2)nn1C)c1ccc(N(CC(=O)O)S(C)(=O)=O)cc1	1.4	–

SMILES	IC50 [2] [µM]	further results
C[C@@H](NC(=O)c1cc(-c2ccccc2)nn1C)c1ccc(N2C[C@@H](O)[C@@H](O)C2)cc1	5.2	–
Cn1c(C(=O)N[C@@H](c2ccccc2)[C@H](O)C(F)(F)F)cc2cc(Cl)ccc21 (relative stereo)	> 100	–
C[C@@H](NC(=O)c1cc(-c2ccccc2)nn1C)c1ccc(N2C(=O)CNC2=O)cc1	2.3	–
C[C@@H](NC(=O)c1cc(-c2ccccc2)nn1C)c1ccc([N+](=O)[O-])cc1	55.4	–
C[C@@H](NC(=O)c1cc(-c2ccccc2)nn1C)c1ccc(S(=O)(=O)CC(=O)O)cc1	0.025	–
CC(NC(=O)c1cc(-c2ccccc2)nn1C)c1ccc(S(N)(=O)=O)cc1 (racemic)	4.3	–
Cn1nc(-c2ccccc2)cc1C(=O)NCc1ccc(C(=O)O)cc1	5.7	–
C[C@@H](NC(=O)c1cc(-c2ccccc2)nn1C)c1ccc(N)cc1	38.1	–
C[C@@H](NC(=O)c1cc(-c2ccccc2)nn1C)c1ccc(CO)cc1	6	–
CC(=O)NS(=O)(=O)c1ccc(C(C)NC(=O)c2cc(-c3ccccc3)nn2C)cc1 (racemic)	0.07	–
C[C@@H](NC(=O)c1cc(-c2ccccc2)nn1C)c1ccc(NC(=N)N)cc1	> 100	–
CC(NC(=O)c1cc(-c2ccccc2)nn1C)c1ccc(S(C)(=O)=O)cc1 (racemic)	5.83	–
CCOC(=O)CS(=O)(=O)c1ccc([C@@H](CO)NC(=O)c2cc3c(Cl)c(Cl)c(C)cc3n2C)cc1	–	fold change (FC) [4]: <= 140; Drug uptake [5]: Tde; half-life [6]: 4.6 h; half-life [7]: 2.25 h; IC50 [8]: 0.029 µM; IC50 [9]: 2 µM
C[C@@H](NC(=O)c1cc(-c2ccccc2)nn1C)c1ccc(-c2cncnc2)cc1	21.5	–
NC(=O)c1ccc(F)c(Cl)c1	–	Kd [10]: 1500 µM
C[C@@H](NC(=O)c1cc(-c2ccccc2)nn1C)c1ccc(N(C)C(=N)N)cc1	> 100	–
CC(NC(=O)c1cc(-c2ccccc2)nn1C)c1ccc(C#N)cc1 (racemic)	33.7	–
CC(=O)NS(=O)(=O)N1CCC(NC(=O)c2cc3c(Cl)c(Cl)ccc3n2C)C(CC(=O)O)C1 (stereo not drawn)	–	IC50 [11]: 0.01 to 1.5 µM

Further lines, with some results ahead:

IC50 [2] [µM]	SMILES	further results
0.3	C[C@@H](NC(=O)c1cc(-c2ccccc2)nn1C)c1ccc(C(=O)NS(C)(=O)=O)cc1	–
> 100	COCC(NC(=O)c1cc2cc(Cl)ccc2n1C)c1ccccc1 (racemic)	–
39.6	Cn1c(C(=O)NC(CN)c2ccccc2)cc2cc(Cl)ccc21 (racemic)	–
0.028	Cc1cc(Cl)c2cc(C(=O)N[C@H](C)c3ccc(C(=O)O)cc3)n(C)c2c1	IC50 [3]: 0.246 µM
0.9	CC(NC(=O)c1cc(-c2ccccc2)nn1C)c1ccc(C(=O)O)cc1 (racemic)	–
0.051	Cc1cc2c(cc1Cl)cc(C(=O)N[C@H](C)c1ccc(C(=O)O)cc1)n2C	IC50 [3]: 0.412 µM
0.002	Cc1cc2c(cc(C(=O)N[C@H](C)c3ccc(S(=O)(=O)CC(=O)O)cc3)n2C)c(Cl)c1Cl	–
> 100	Cn1c(C(=O)NC(C(=O)O)c2ccccc2)cc2cc(Cl)ccc21 (racemic)	–
1.95	C[C@@H](NC(=O)c1cc2ccccc2n1C)c1ccc(C(=O)O)cc1	–
0.4	C[C@@H](NC(=O)c1cc(-c2ccccc2)nn1C)c1ccc(C(=O)O)cc1	–
5.2	Cn1c(C(=O)NC(CO)c2ccccc2)cc2cc(Cl)ccc21 (racemic)	–
12.1	C[C@@H](O)[C@@H](NC(=O)c1cc2cc(Cl)ccc2n1C)c1ccccc1	–
0.072	COc1cc(Cl)cc2cc(C(=O)N[C@H](C)c3ccc(C(=O)O)cc3)n(C)c12	IC50 [3]: 0.746 µM
0.824	C[C@@H](NC(=O)c1cc2cc(Cl)cc(OC(F)(F)F)c2n1C)c1ccc(C(=O)O)cc1	IC50 [3]: 6.69 µM
11.7	C[C@H](O)[C@@H](NC(=O)c1cc2cc(Cl)ccc2n1C)c1ccccc1	–
0.028	Cc1cc2c(cc(C(=O)N[C@H](C)c3ccc(C(=O)O)cc3)n2C)c2ccccc12	IC50 [3]: 0.249 µM
0.058	C[C@@H](NC(=O)c1cc2c3ccccc3ccc2n1C)c1ccc(C(=O)O)cc1	IC50 [3]: 0.345 µM
0.03	C[C@@H](NC(=O)c1cc2c(Cl)c(Cl)ccc2n1C)c1ccc(C(=O)O)cc1	IC50 [3]: 0.228 µM
100	Cn1c(C(=O)NC(CCO)c2ccccc2)cc2cc(Cl)ccc21 (racemic)	–
0.061	C[C@@H](NC(=O)c1cc2cc(Cl)c(Br)cc2n1C)c1ccc(C(=O)O)cc1	IC50 [3]: 0.341 µM
0.003	Cc1cc(Cl)c2cc(C(=O)N[C@H](C)c3ccc(S(=O)(=O)CC(=O)O)cc3)n(C)c2c1	–
0.081	C[C@@H](NC(=O)c1cc2c(Cl)cc(C(F)F)cc2n1C)c1ccc(C(=O)O)cc1	IC50 [3]: 0.714 µM
3.1	C[C@@H](NC(=O)c1cc(-c2ccccc2)nn1C)c1ccc(C(N)=O)cc1	–
0.123	COc1cc(F)c(Cl)c2cc(C(=O)N[C@H](C)c3ccc(C(=O)O)cc3)n(C)c12	IC50 [3]: 1.29 µM
0.254	C[C@@H](NC(=O)c1cc2cc(Cl)ccc2n1C)c1ccc(C(=O)O)cc1	IC50 [3]: 2.37 µM
> 100	Cn1c(C(=O)NC(C(N)=O)c2ccccc2)cc2cc(Cl)ccc21 (racemic)	–
0.014	Cc1cc2c(cc(C(=O)N[C@H](C)c3ccc(C(=O)O)cc3)n2C)c(Cl)c1Cl	IC50 [3]: 0.095 µM
0.03	CCc1cc(Cl)c2cc(C(=O)N[C@H](C)c3ccc(C(=O)O)cc3)n(C)c2c1	IC50 [3]: 0.301 µM
